Assay results published in patent publication US8853230B2, “Inhibitors of JAK” (Portola Pharmaceuticals, Inc., priority 2009, dated 2014).

Experiments:
Assay type in all cases: biochemical
JAK2 = biological target: T1, JAK2 (Homo sapiens, UniProt O60674); test: Z'-LYTE kinase assay, JAK2 tyrosine phosphorylation activity
T1 construct: 5 μl of catalytic domain recombinant Kinase enzyme+Tyr peptide substrate (Invitrogen, Calif.); purchased Invitrogen
Summary of the method: (§1)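 Inhibition is expressed as substrate phosphorylation relative to inhibitor-free wells, fitted with a 4-parameter logistic model for IC50. Reactions contain catalytic-domain kinase, Tyr6 peptide and ATP, run 1 h at room temperature. Development protease is added for 1 h before fluorescence readout.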

JAK3 = biological target: T2, JAK3 (Homo sapiens, UniProt P52333); test: Z'-LYTE kinase assay, JAK3 tyrosine phosphorylation activity
T2 construct: 5 μl of catalytic domain recombinant Kinase enzyme+Tyr peptide substrate (Invitrogen, Calif.); purchased Invitrogen
Summary of the method: as §1

TYK2 = biological target: T3, TYK2 (Homo sapiens, UniProt P29597); test: Z'-LYTE kinase assay, TYK2 tyrosine phosphorylation activity
T3 construct: 5 μl of catalytic domain recombinant Kinase enzyme+Tyr peptide substrate (Invitrogen, Calif.); purchased Invitrogen
T3 sequence (P29597 897-1176 limits assumed): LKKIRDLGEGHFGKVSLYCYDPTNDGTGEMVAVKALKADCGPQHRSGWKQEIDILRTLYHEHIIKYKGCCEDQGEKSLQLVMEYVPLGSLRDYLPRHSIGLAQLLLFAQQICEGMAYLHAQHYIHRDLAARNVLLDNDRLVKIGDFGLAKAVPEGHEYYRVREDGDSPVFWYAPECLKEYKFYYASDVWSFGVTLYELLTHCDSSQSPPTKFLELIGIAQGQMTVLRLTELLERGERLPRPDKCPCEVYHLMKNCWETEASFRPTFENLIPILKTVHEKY
Procedure: JAK and TYK2 tyrosine phosphorylation activity is measured using the Z′-LYTE™ Technology developed by Invitrogen Corporation (Carlsbad, Calif.). For JAK1, JAK2 and JAK3 the Z′-LYTE™ Kinase Assay Kit-Tyr6 Peptide (part number PV4122) was used. For TYK2 the Z′-LYTE™ Kinase Assay Kit-Tyr6 Peptide (part number PV3192) was used. The Z′-LYTE™ biochemical assay employs a fluorescence resonance energy transfer (FRET) coupled-enzyme format and is based on the differential sensitivity of phosphorylated and non-phosphorylated peptides to proteolitic cleavage. The assay uses a synthetic peptide substrate that is labelled with a donor fluorophore (coumarin) and an acceptor fluorophore (fluorescein) that make up a FRET pair. In the primary reaction (the Kinase Reaction), the kinase transfers the γ-phosphate of ATP to a single tyrosine residue on the substrate, while the presence of a kinase inhibitor in the primary reaction suppresses phosphorylation. In the secondary reaction (the Development Reaction), a site-specific protease (the Development Reagent) is added. The development buffer quenches the Kinase Reaction, while the protease recognizes and cleaves non-phosphorylated Z′-LYTE™ peptide substrate. Cleavage disrupts FRET between the donor and acceptor fluorophores on the non-phosphoryleted substrate, while uncleaved, phosphorylated substrate maintains FRET.
To test the ability of candidate molecules to inhibit JAK tyrosine phosphorylation activity, molecules are reconstituted in 100% DMSO and serially diluted 1:10 in polypropylene v-bottom microtiter plates. The candidate molecules are then diluted 1:25 into kinase buffer and 2.5 μl transferred into duplicate wells of a 384 well low volume black microtiter assay plate (Corning, USA). The final DMSO concentration in the assay is 1%. The kinase reaction contains 2.5 μl of a candidate molecule, 5 μl of catalytic domain recombinant Kinase enzyme+Tyr peptide substrate (Invitrogen, Calif.) and 2.5 μl ATP (Invitrogen, Calif.). The kinase reaction is allowed to procede for 1 hour at room temperature. The protease reaction is initiated by the addition of 5 μl Development Reagent (Invitrogen, Calif.). After 1 hour incubation at room temperature the fluorescence is measured using a FlexStation plate reader (Molecular Devices, Sunnyvale, Calif.). The reader settings used are as follows: Fluorescence mode, endpoint, top read, excitation 400 nm, emission 445 nm and 520 nm, Auto Cutoff 435 nm and 515 nm, PMT sensitivity high, 6 reads per well. Inhibition of JAK activity is calculated as the percent phosphorylation of substrate in the presence of inhibitor compared to the percent phosphorylation of substrate in the absence of inhibitor. IC50's were derived using Xlfit 4.3 (IDBS, UK), 4 parameter logistic model 205: Y=(A+((B−A)/(1+((C/x)^D)))).

JAK1 = biological target: T4, JAK1 (Homo sapiens, UniProt P23458); test: Z'-LYTE kinase assay, JAK1 tyrosine phosphorylation activity; conditions: read-out: JAK 1 IC50
T4 construct: 5 μl of catalytic domain recombinant Kinase enzyme+Tyr peptide substrate (Invitrogen, Calif.); purchased Invitrogen
Summary of the method: as §1

T1 sequence (O60674 849-1124 limits assumed): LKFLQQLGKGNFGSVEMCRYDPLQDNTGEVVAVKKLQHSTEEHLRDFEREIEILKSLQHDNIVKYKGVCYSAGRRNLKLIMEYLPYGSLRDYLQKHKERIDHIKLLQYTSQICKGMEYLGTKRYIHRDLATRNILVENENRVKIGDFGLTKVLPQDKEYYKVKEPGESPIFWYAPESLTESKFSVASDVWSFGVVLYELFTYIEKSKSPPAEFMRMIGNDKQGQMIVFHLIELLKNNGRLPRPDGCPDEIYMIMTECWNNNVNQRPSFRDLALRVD
T2 sequence (P52333 822-1111 limits assumed): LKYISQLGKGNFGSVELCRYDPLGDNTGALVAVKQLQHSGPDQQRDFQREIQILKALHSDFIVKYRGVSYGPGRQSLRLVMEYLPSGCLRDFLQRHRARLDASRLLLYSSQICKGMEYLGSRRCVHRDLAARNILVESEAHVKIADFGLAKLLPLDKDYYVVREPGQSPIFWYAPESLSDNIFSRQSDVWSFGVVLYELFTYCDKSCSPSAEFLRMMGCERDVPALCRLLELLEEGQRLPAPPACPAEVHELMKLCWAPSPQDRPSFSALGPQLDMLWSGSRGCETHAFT
T4 sequence (P23458 875-1153 limits assumed): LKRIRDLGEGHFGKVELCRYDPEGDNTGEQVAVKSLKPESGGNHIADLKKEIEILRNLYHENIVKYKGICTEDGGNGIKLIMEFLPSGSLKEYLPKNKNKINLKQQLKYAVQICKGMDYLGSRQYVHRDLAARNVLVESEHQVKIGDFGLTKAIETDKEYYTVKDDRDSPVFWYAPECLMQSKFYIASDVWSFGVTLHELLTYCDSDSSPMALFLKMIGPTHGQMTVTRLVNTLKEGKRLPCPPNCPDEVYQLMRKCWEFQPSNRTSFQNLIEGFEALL

| SMILES | IC50 (JAK2) [nM] | IC50 (JAK3) [nM] | IC50 (TYK2) [nM] | IC50 (JAK1) [nM] |
| --- | --- | --- | --- | --- |
| CC[C@H](C)Nc1nc(Nc2cccc(NC(=O)N3CCCC3)c2)ncc1C(N)=O [Example 145] | 10 to 100 | 1 to 10 | 10 to 100 | 10 to 100 |
| CC(=O)Nc1cc(Nc2ncc(C(N)=O)c(Nc3cccc4nsnc34)n2)ccc1OCCN(C)C [Example 230, 2-(3-acetamido-4-(2-(dimethylamino)ethoxy)phenylamino)-4-(benzo[c][1,2,5]thiadiazo-4-ylamino)pyrimidine-5-carboxamide] | 1 to 10 | 1 to 10 | 10 to 100 | 10 to 100 |
| CN1CCN(C(=O)Nc2cccc(Nc3ncc(C(N)=O)c(NCc4cccc(F)c4)n3)c2)CC1 [Example 258, 4-(3-fluorobenzylamino)-2-(3-(4-methylpiperazine-1-carboxamido)phenylamino)pyrimidine-5-carboxamide] | 1 to 10 | < 1 | 1 to 10 | 10 to 100 |
| CCNc1nc(Nc2cccc(NC(=O)N3CCCC3)c2)ncc1C(N)=O [Example 134, 4-(ethylamino)-2-(3-(pyrrolidine-1-carboxamido)phenylamino)pyrimidine-5-carboxamide] | 10 to 100 | 1 to 10 | 10 to 100 | 10 to 100 |
| CC(=O)Nc1cccc(Nc2ncc(C(N)=O)c(NCC(C)C)n2)c1 [Example 235, 2-(3-acetamidophenylamino)-4-(isobutylamino)pyrimidine-5-carboxamide] | 10 to 100 | 1 to 10 | 1 to 10 | 10 to 100 |
| CC(=O)Nc1cc(Cl)cc(Nc2ncc(C(N)=O)c(NCc3cccc(F)c3)n2)c1 [Example 261, 2-(3-acetamido-5-chlorophenylamino)-4-(3-fluorobenzylamino)pyrimidine-5-carboxamide] | 10 to 100 | 10 to 100 | 10 to 100 | > 1000 |
| C[C@@H](Nc1nc(Nc2cccc(NC(=O)N3CCCC3)c2)ncc1C(N)=O)c1ccccc1 [Example 105, (R)-4-(1-phenylethylamino)-2-(3-(pyrrolidine-1-carboxamido)phenylamino)pyrimidine-5-carboxamide] | 10 to 100 | 1 to 10 | 10 to 100 | 100 to 1000 |
| CC(=O)Nc1cccc(Nc2ncc(C(N)=O)c(NCc3cccnc3)n2)c1 [Example 188, 2-(3-acetamidophenylamino)-4-(pyridin-3-ylmethylamino)pyrimidine-5-carboxamide] | 10 to 100 | 1 to 10 | 10 to 100 | 100 to 1000 |
| C[C@@H]1CCCN1C(=O)Nc1cccc(Nc2ncc(C(N)=O)c(N[C@H](C)c3ccccc3)n2)c1 [Example 148, 2-(3-((R)-2-methylpyrrolidine-1-carboxamido)phenylamino)-4-((R)-1-phenylethylamino)pyrimidine-5-carboxamide] | 10 to 100 | 1 to 10 | 10 to 100 | 100 to 1000 |
| C[C@@H](Nc1nc(Nc2cccc(NC(=O)N3CCCCC3)c2)ncc1C(N)=O)c1ccccc1 [Example 220, (R)-4-(1-phenylethylamino)-2-(3-(piperidine-1-carboxamido)phenylamino)pyrimidine-5-carboxamide] | 10 to 100 | 1 to 10 | 10 to 100 | 100 to 1000 |
| CC[C@@H](C)Nc1nc(Nc2ccc(Cl)c(NC(=O)N3CCCC3)c2)ncc1C(N)=O [Example 237, (R)-4-(sec-butylamino)-2-(4-chloro-3-(pyrrolidine-1-carboxamido)phenylamino)pyrimidine-5-carboxamide] | 10 to 100 | 1 to 10 | 10 to 100 | 10 to 100 |
| CNC(=O)Nc1cc(Nc2ncc(C(N)=O)c(NCc3ccccc3)n2)ccc1F [Example 158, 4-(benzylamino)-2-(4-fluoro-3-(3-methylureido)phenylamino)pyrimidine-5-carboxamide] | 10 to 100 | 1 to 10 | 10 to 100 | > 1000 |
| NC(=O)c1cnc(Nc2ccc(Cl)c(NC(=O)N3CCCC3)c2)nc1NCC1CC1 [Example 174, 2-(4-chloro-3-(pyrrolidine-1-carboxamido)phenylamino)-4-(cyclopropylmethylamino)pyrimidine-5-carboxamide] | 100 to 1000 | 10 to 100 | 10 to 100 | 10 to 100 |
| CC(=O)Nc1cccc(Nc2ncc(C(N)=O)c(N[C@H](C)C(C)C)n2)c1 [Example 252, (R)-2-(3-acetamidophenylamino)-4-(3-methylbutan-2-ylamino)pyrimidine-5-carboxamide] | 1 to 10 | < 1 | < 1 | 1 to 10 |
| CCC(C)CNc1nc(Nc2ccc(Cl)c(NC(=O)N3CCCC3)c2)ncc1C(N)=O (centres unmarked) [Example 250] | 100 to 1000 | 1 to 10 | 10 to 100 | 10 to 100 |
| NC(=O)c1cnc(Nc2ccc(Cl)c(NC(=O)N3CCCC3)c2)nc1NC1CCCC1 [Example 167, 2-(4-chloro-3-(pyrrolidine-1-carboxamido)phenylamino)-4-(cyclopentylamino)pyrimidine-5-carboxamide] | 100 to 1000 | 10 to 100 | 10 to 100 | 10 to 100 |
| CC(=O)Nc1cccc(Nc2ncc(C(N)=O)c(NCC3CCC3)n2)c1 [Example 262, 2-(3-acetamidophenylamino)-4-(cyclobutylmethylamino)pyrimidine-5-carboxamide] | 10 to 100 | 1 to 10 | 1 to 10 | 10 to 100 |
| CNC(=O)Nc1ccc(F)c(Nc2ncc(C(N)=O)c(NCc3ccccc3)n2)c1 [Example 200, 4-(benzylamino)-2-(2-fluoro-5-(3-methylureido)phenylamino)pyrimidine-5-carboxamide] | > 1000 | 10 to 100 | 100 to 1000 | > 1000 |
| CCC(C)CNc1nc(Nc2cccc(NC(C)=O)c2)ncc1C(N)=O (centres unmarked) [Example 249, 2-(3-acetamidophenylamino)-4-(2-methylbutylamino)pyrimidine-5-carboxamide] | 1 to 10 | < 1 | 1 to 10 | 10 to 100 |
| COc1ccc(Nc2ncc(C(N)=O)c(NCc3cccc(F)c3)n2)cc1N(C)C(=O)N1CCCC1 [Example 240, 4-(3-fluorobenzylamino)-2-(4-methoxy-3-(N-methylpyrrolidine-1-carboxamido)phenylamino)pyrimidine-5-carboxamide] | > 1000 | 100 to 1000 | > 1000 | > 1000 |
| NC(=O)c1cnc(Nc2ccc(Cl)c(NC(=O)N3CCCC3)c2)nc1NCc1cccc(Cl)c1 [Example 173, 2-(4-chloro-3-(pyrrolidine-1-carboxamido)phenylamino)-4-(3-chlorobenzylamino)pyrimidine-5-carboxamide] | 100 to 1000 | 10 to 100 | 100 to 1000 | > 1000 |
| NC(=O)c1cnc(Nc2ccc(N3CCCC3)c(NC(=O)N3CCCC3)c2)nc1NCc1ccccc1 [Example 159, 4-(benzylamino)-2-(4-(pyrrolidin-1-yl)-3-(pyrrolidine-1-carboxamido)phenylamino)pyrimidine-5-carboxamide] | 10 to 100 | 1 to 10 | 10 to 100 | 100 to 1000 |
| CC(=O)Nc1cccc(Nc2ncc(C(N)=O)c(Nc3ccc(S(C)(=O)=O)cc3)n2)c1 [Example 197] | 10 to 100 | 10 to 100 | 10 to 100 | > 1000 |
